# PubChem BioAssay (NCI)
#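 96-well plates; 48 h exposure; 5 concentrations. Endpoints by linear interpolation between flanking doses. Not reached: highest tested concentration assigned. GI50 = concentration required for 50% inhibition of growth. The concentration for full growth arrest is given as TGI.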
# Key:
# Test in all cases: DTP human tumour cell line panel, 48 h
# [1] = test system: 786-0 renal
# [2] = test system: A498 renal
# [3] = test system: A549 NSCLC
# [4] = test system: ACHN renal
# [5] = test system: BT-549 breast
# [6] = test system: CAKI-1 renal
# [7] = test system: CCRF-CEM leukemia
# [8] = test system: COLO 205 colon
# [9] = test system: DU-145 prostate
# [10] = test system: EKVX NSCLC
# [11] = test system: HCC-2998 colon
# [12] = test system: HCT-116 colon
# [13] = test system: HCT-15 colon
# [14] = test system: HL-60(TB) leukemia
# [15] = test system: HOP-62 NSCLC
# [16] = test system: HOP-92 NSCLC
# [17] = test system: HS 578T breast
# [18] = test system: HT29 colon
# [19] = test system: IGROV1 ovarian
# [20] = test system: K-562 leukemia
# [21] = test system: KM12 colon
# [22] = test system: LOX IMVI melanoma
# [23] = test system: M14 melanoma
# [24] = test system: MALME-3M melanoma
# [25] = test system: MCF7 breast
# [26] = test system: MDA-MB-231 breast
# [27] = test system: MDA-MB-435
# [28] = test system: MDA-MB-468 breast
# [29] = test system: MOLT-4 leukemia
# [30] = test system: NCI-H226 lung
# [31] = test system: NCI-H23 lung
# [32] = test system: NCI-H460 lung
# [33] = test system: NCI-H522 lung
# [34] = test system: NCI/ADR-RES ovarian
# [35] = test system: OVCAR-3 ovarian
# [36] = test system: OVCAR-4 ovarian
# [37] = test system: OVCAR-5 ovarian
# [38] = test system: OVCAR-8 ovarian
# [39] = test system: PC-3 prostate
# [40] = test system: RPMI-8226 leukemia
# [41] = test system: RXF 393 renal
# [42] = test system: SF-268 CNS
# [43] = test system: SF-295 CNS
# [44] = test system: SF-539 CNS
# [45] = test system: SK-MEL-2 melanoma
# [46] = test system: SK-MEL-28 melanoma
# [47] = test system: SK-MEL-5 melanoma
# [48] = test system: SK-OV-3 ovarian
# [49] = test system: SN12C renal
# [50] = test system: SNB-19 CNS
# [51] = test system: SNB-75 CNS
# [52] = test system: SR leukemia
# [53] = test system: SW-620 colon
# [54] = test system: T-47D breast
# [55] = test system: TK-10 renal
# [56] = test system: U251 CNS
# [57] = test system: UACC-257 melanoma
# [58] = test system: UACC-62 melanoma
# [59] = test system: UO-31 renal
smiles,measurement,setting,value
C=CC(=O)Nc1nc(-c2cccc(NS(=O)(=O)c3cccc4c(N(C)C)cccc34)c2)cs1,GI50,[1],2.6 µM
same,TGI,[1],11.7 µM
same,GI50,[2],8.83 µM
same,TGI,[2],18.1 µM
same,GI50,[3],9.27 µM
same,TGI,[3],21.7 µM
same,GI50,[4],3.87 µM
same,TGI,[4],13.3 µM
same,GI50,[5],2.72 µM
same,TGI,[5],9.07 µM
same,GI50,[6],3.74 µM
same,TGI,[6],13.2 µM
same,GI50,[7],1.69 µM
same,TGI,[7],5.33 µM
same,GI50,[8],9.08 µM
same,TGI,[8],25.3 µM
same,GI50,[9],5.4 µM
same,TGI,[9],15.2 µM
same,GI50,[10],10.5 µM
same,TGI,[10],20.5 µM
same,GI50,[11],9.22 µM
same,TGI,[11],18.7 µM
same,GI50,[12],2.38 µM
same,TGI,[12],10.5 µM
same,GI50,[13],2.77 µM
same,TGI,[13],11 µM
same,GI50,[14],2.62 µM
same,TGI,[14],14.7 µM
same,GI50,[15],11.4 µM
same,TGI,[15],22.2 µM
same,GI50,[16],6.16 µM
same,TGI,[16],16.4 µM
same,GI50,[17],4.06 µM
same,TGI,[17],26.7 µM
same,GI50,[18],2.96 µM
same,TGI,[18],12.2 µM
same,GI50,[19],7.67 µM
same,TGI,[19],16.4 µM
same,GI50,[20],3.15 µM
same,TGI,[20],74.8 µM
same,GI50,[21],6.28 µM
same,TGI,[21],18 µM
same,GI50,[22],1.61 µM
same,TGI,[22],4.24 µM
same,GI50,[23],4.34 µM
same,TGI,[23],16 µM
same,GI50,[24],8.53 µM
same,TGI,[24],17.6 µM
same,GI50,[25],2.71 µM
same,TGI,[25],11.2 µM
same,GI50,[26],3.75 µM
same,TGI,[26],13.2 µM
same,GI50,[27],3.02 µM
same,TGI,[27],13.9 µM
same,GI50,[28],1.96 µM
same,TGI,[28],6.71 µM
same,GI50,[29],2.42 µM
same,TGI,[29],12.5 µM
same,GI50,[30],10.9 µM
same,TGI,[30],25.8 µM
same,GI50,[31],10.4 µM
same,TGI,[31],20.8 µM
same,GI50,[32],7.81 µM
same,TGI,[32],18.7 µM
same,GI50,[33],2.75 µM
same,TGI,[33],11.9 µM
same,GI50,[34],3.78 µM
same,TGI,[34],18.3 µM
same,GI50,[35],2.1 µM
same,TGI,[35],10.5 µM
same,GI50,[36],8.29 µM
same,TGI,[36],17.8 µM
same,GI50,[37],9.28 µM
same,TGI,[37],18.6 µM
same,GI50,[38],7.94 µM
same,TGI,[38],22.5 µM
same,GI50,[39],4.7 µM
same,TGI,[39],19.7 µM
same,GI50,[40],2.1 µM
same,TGI,[40],11.3 µM
same,GI50,[41],2.74 µM
same,TGI,[41],11.7 µM
same,GI50,[42],5.92 µM
same,TGI,[42],18.2 µM
same,GI50,[43],9.01 µM
same,TGI,[43],18.8 µM
same,GI50,[44],1.79 µM
same,TGI,[44],6.03 µM
same,GI50,[45],9.35 µM
same,TGI,[45],19.3 µM
same,GI50,[46],5.99 µM
same,TGI,[46],15.3 µM
same,GI50,[47],6.19 µM
same,TGI,[47],15.8 µM
same,GI50,[48],14 µM
same,TGI,[48],25.9 µM
same,GI50,[49],4.56 µM
same,TGI,[49],14.5 µM
same,GI50,[50],10.2 µM
same,TGI,[50],19.8 µM
same,GI50,[51],1.86 µM
same,TGI,[51],10.1 µM
same,GI50,[52],2 µM
same,TGI,[52],20.3 µM
same,GI50,[53],2.49 µM
same,TGI,[53],10.2 µM
same,GI50,[54],4.64 µM
same,TGI,[54],17.7 µM
same,GI50,[55],3.07 µM
same,TGI,[55],10.6 µM
same,GI50,[56],9.04 µM
same,TGI,[56],18.9 µM
same,GI50,[57],9.31 µM
same,TGI,[57],19.4 µM
same,GI50,[58],3.74 µM
same,TGI,[58],13.1 µM
same,GI50,[59],5.43 µM
same,TGI,[59],15.1 µM
